# Measurements reported in US20180325914A1, “INCREASING STORAGE OF VITAMIN A, VITAMIN D AND/OR LIPIDS” (Salk Institute for Biological Studies, priority 2014, published 2018).
# Tested on: primary HSCs
smiles,measurement,setting,value
"Cc1sc2c(c1C)C(c1ccc(Cl)cc1)=N[C@@H](CC(=O)OC(C)(C)C)c1nnc(C)n1-2 [JQ1, (S)-tert-butyl 2-(4-(4-chlorophenyl)-2,3,9-trimethyl-6H-thieno[3,2-f][1,2,4]triazolo[4,3-a][1,4]diazepin-6-yl)acetate]",Stk39 value_2,Day_6_JQ1,17.0092
same,Sulf1 value_2,Day_6_JQ1,53.8118
same,Tbxa2r value_2,Day_6_JQ1,1.603
same,Tcea3 value_2,Day_6_JQ1,1.947
same,Tead3 value_2,Day_6_JQ1,19.5802
same,Thbs3 value_2,Day_6_JQ1,1.4249
same,Timp1 value_2,Day_6_JQ1,296.521
same,Tlcd2 value_2,Day_6_JQ1,7.717
same,Tm7sf3 value_2,Day_6_JQ1,17.8846
same,Tmem14a value_2,Day_6_JQ1,2.145
same,Tmem38a value_2,Day_6_JQ1,9.934
same,Tmem45a value_2,Day_6_JQ1,21.4757
same,Tmem119 value_2,Day_6_JQ1,38.7358
same,Tpm1 value_2,Day_6_JQ1,1441.58
same,Trf value_2,Day_6_JQ1,73.4499
same,Trim46 value_2,Day_6_JQ1,1.758
same,Trnp1 value_2,Day_6_JQ1,13.5695
same,Tsku value_2,Day_6_JQ1,19.2147
same,Tspan2 value_2,Day_6_JQ1,2.762
same,Tspan6 value_2,Day_6_JQ1,21.2613
same,Ttc13 value_2,Day_6_JQ1,20.1057
same,Tubb2b value_2,Day_6_JQ1,18.8633
same,Tubb4 value_2,Day_6_JQ1,12.0841
same,Txndc5 value_2,Day_6_JQ1,194.663
same,Ube2c value_2,Day_6_JQ1,30.6226
same,Unc119 value_2,Day_6_JQ1,15.3231
same,Vash2 value_2,Day_6_JQ1,1.343
same,Vegfa value_2,Day_6_JQ1,27.576
same,Wee1 value_2,Day_6_JQ1,8.031
same,Wfs1 value_2,Day_6_JQ1,22.9762
same,Whrn value_2,Day_6_JQ1,4.993
same,Wnt4 value_2,Day_6_JQ1,18.5297
same,Wnt5a value_2,Day_6_JQ1,7.524
same,Wnt9a value_2,Day_6_JQ1,7.671
same,Ydjc value_2,Day_6_JQ1,1.905
same,Zbtb8b value_2,Day_6_JQ1,2.023
same,Zyx value_2,Day_6_JQ1,185.005
same,1190002N15Rik value_2,"gene 1190002N15Rik, mRNA-Seq, sample Day_6_JQ1",132.567
same,Aard value_2,"gene Aard, mRNA-Seq, sample Day_6_JQ1",83.973
same,Abat value_2,"gene Abat, mRNA-Seq, sample Day_6_JQ1",35.0761
same,Adamts5 value_2,"gene Adamts5, mRNA-Seq, sample Day_6_JQ1",91.9646
same,Aldh1a1 value_2,"gene Aldh1a1, mRNA-Seq, sample Day_6_JQ1",311.654
same,Arxes2 value_2,"gene Arxes2, mRNA-Seq, sample Day_6_JQ1",27.1896
same,Asf1b value_2,"gene Asf1b, mRNA-Seq, sample Day_6_JQ1",22.9334
same,Atoh8 value_2,"gene Atoh8, mRNA-Seq, sample Day_6_JQ1",73.1716
same,Barx1 value_2,"gene Barx1, mRNA-Seq, sample Day_6_JQ1",11.4288
same,Bcmo1 value_2,"gene Bcmo1, mRNA-Seq, sample Day_6_JQ1",159.902
same,Birc5 value_2,"gene Birc5, mRNA-Seq, sample Day_6_JQ1",50.4974
same,Bub1 value_2,"gene Bub1, mRNA-Seq, sample Day_6_JQ1",8.993
same,Casc4 value_2,"gene Casc4, mRNA-Seq, sample Day_6_JQ1",36.8307
same,Cd248 value_2,"gene Cd248, mRNA-Seq, sample Day_6_JQ1",118.878
same,Cdca5 value_2,"gene Cdca5, mRNA-Seq, sample Day_6_JQ1",10.0872
same,Cdon value_2,"gene Cdon, mRNA-Seq, sample Day_6_JQ1",16.8708
same,Cep55 value_2,"gene Cep55, mRNA-Seq, sample Day_6_JQ1",13.1668
same,Ckap2 value_2,"gene Ckap2, mRNA-Seq, sample Day_6_JQ1",33.1117
same,Clca1 value_2,"gene Clca1, mRNA-Seq, sample Day_6_JQ1",52.2679
same,Col14a1 value_2,"gene Col14a1, mRNA-Seq, sample Day_6_JQ1",181.433
same,Ddr1 value_2,"gene Ddr1, mRNA-Seq, sample Day_6_JQ1",106.289
same,Dzip1 value_2,"gene Dzip1, mRNA-Seq, sample Day_6_JQ1",31.5814
same,Efemp1 value_2,"gene Efemp1, mRNA-Seq, sample Day_6_JQ1",205.387
same,Egr1 value_2,"gene Egr1, mRNA-Seq, sample Day_6_JQ1",141.166
same,Emilin2 value_2,"gene Emilin2, mRNA-Seq, sample Day_6_JQ1",88.1199
same,Epha7 value_2,"gene Epha7, mRNA-Seq, sample Day_6_JQ1",11.3808
same,Fam117a value_2,"gene Fam117a, mRNA-Seq, sample Day_6_JQ1",15.5563
same,Fam123b value_2,"gene Fam123b, mRNA-Seq, sample Day_6_JQ1",9.43
same,Fam83d value_2,"gene Fam83d, mRNA-Seq, sample Day_6_JQ1",24.1741
same,Fbln1 value_2,"gene Fbln1, mRNA-Seq, sample Day_6_JQ1",13.4635
same,Fbln5 value_2,"gene Fbln5, mRNA-Seq, sample Day_6_JQ1",79.5082
same,Fgfr2 value_2,"gene Fgfr2, mRNA-Seq, sample Day_6_JQ1",86.0077
same,Fhl1 value_2,"gene Fhl1, mRNA-Seq, sample Day_6_JQ1",503.063
same,Figf value_2,"gene Figf, mRNA-Seq, sample Day_6_JQ1",27.0541
same,Gamt value_2,"gene Gamt, mRNA-Seq, sample Day_6_JQ1",12.8445
same,Gdf11 value_2,"gene Gdf11, mRNA-Seq, sample Day_6_JQ1",22.9531
same,Ghr value_2,"gene Ghr, mRNA-Seq, sample Day_6_JQ1",60.5749
same,H1fx value_2,"gene H1fx, mRNA-Seq, sample Day_6_JQ1",50.515
same,H2afx value_2,"gene H2afx, mRNA-Seq, sample Day_6_JQ1",155.278
same,H19 value_2,"gene H19, mRNA-Seq, sample Day_6_JQ1",82.2113
same,Hist1h1c value_2,"gene Hist1h1c, mRNA-Seq, sample Day_6_JQ1",246.293
same,Hmcn1 value_2,"gene Hmcn1, mRNA-Seq, sample Day_6_JQ1",13.3966
same,Hmgn3 value_2,"gene Hmgn3, mRNA-Seq, sample Day_6_JQ1",59.5606
same,Hspa2 value_2,"gene Hspa2, mRNA-Seq, sample Day_6_JQ1",19.5751
same,Igf2r value_2,"gene Igf2r, mRNA-Seq, sample Day_6_JQ1",67.7147
same,Igfbp6 value_2,"gene Igfbp6, mRNA-Seq, sample Day_6_JQ1",52.4488
same,Isyna1 value_2,"gene Isyna1, mRNA-Seq, sample Day_6_JQ1",113.425
same,Itga1 value_2,"gene Itga1, mRNA-Seq, sample Day_6_JQ1",101.182
same,Itm2a value_2,"gene Itm2a, mRNA-Seq, sample Day_6_JQ1",59.8717
same,Kif23 value_2,"gene Kif23, mRNA-Seq, sample Day_6_JQ1",11.9374
same,Kifc1 value_2,"gene Kifc1, mRNA-Seq, sample Day_6_JQ1",15.9311
same,Klhl13 value_2,"gene Klhl13, mRNA-Seq, sample Day_6_JQ1",100
same,Lama1 value_2,"gene Lama1, mRNA-Seq, sample Day_6_JQ1",16.8277
same,Lum value_2,"gene Lum, mRNA-Seq, sample Day_6_JQ1",485.984
same,Mad2l1 value_2,"gene Mad2l1, mRNA-Seq, sample Day_6_JQ1",31.9743
same,Mapk8ip1 value_2,"gene Mapk8ip1, mRNA-Seq, sample Day_6_JQ1",16.3375
same,Meis1 value_2,"gene Meis1, mRNA-Seq, sample Day_6_JQ1",24.7836
same,Mmp17 value_2,"gene Mmp17, mRNA-Seq, sample Day_6_JQ1",25.3895
same,Mxd4 value_2,"gene Mxd4, mRNA-Seq, sample Day_6_JQ1",76.146
same,Ncapd2 value_2,"gene Ncapd2, mRNA-Seq, sample Day_6_JQ1",18.5667
same,Ncapg2 value_2,"gene Ncapg2, mRNA-Seq, sample Day_6_JQ1",11.6063
same,Ncaph value_2,"gene Ncaph, mRNA-Seq, sample Day_6_JQ1",16.1078
same,Nek2 value_2,"gene Nek2, mRNA-Seq, sample Day_6_JQ1",11.522
same,Nusap1 value_2,"gene Nusap1, mRNA-Seq, sample Day_6_JQ1",10.0613
same,Pcsk6 value_2,"gene Pcsk6, mRNA-Seq, sample Day_6_JQ1",16.0741
same,Pcyox1 value_2,"gene Pcyox1, mRNA-Seq, sample Day_6_JQ1",135.704
same,Peg3 value_2,"gene Peg3, mRNA-Seq, sample Day_6_JQ1",37.0421
same,Peg10 value_2,"gene Peg10, mRNA-Seq, sample Day_6_JQ1",121.813
same,Pkia value_2,"gene Pkia, mRNA-Seq, sample Day_6_JQ1",28.0014
